Marks after values point to notes of the source that are not given here.
B1: IFN-γ: recombinant human immune interferon produced in Escherichia coli (protein, UniProt P01579 24-161, looked up)
Interferon gamma: QDPYVKEAENLKKYFNAGHSDVADNGTLFLGILKNWKEESDRKIMQSQIVSFYFKLFKNFKDDQSIQKSVETIKEDMNVKFFNSNKKKRDDFEKLTNYSVTDLNVQRKAIHELIQVMAELSPAAKTGKRKRSQMLFRG
B2: IFN-β: recombinant human fibroblast interferon with a serine substituted for a cysteine at position 17 (protein, UniProt P01574 22-187, looked up, variant C17S)
Interferon beta: MSYNLLGFLQRSSNFQSQKLLWQLNGRLEYCLKDRMNFDIPEEIKQLQQFQKEDAALTIYEMLQNIFAIFRQDSSSTGWNETIVENLLANVYHQINHLKTVLEEKLEKEDFTRGKLMSSLHLKRYYGRILHYLKAKEYSHCAWTIVRVEILRNFYFINRLTGYLRN

Experiments:
[1] = system: HLA-DR; assay: FACS analysis of HLA-DR (MoAb L243) in WiDr human colon carcinoma cells; assay type: cell-based
Protocol: (§1) Cells were plated in 10 cm plates, media was changed 24 hours later with no addition (control) or addition of the indicated compounds and cells were incubated at 37° C. for the indicated time (72 or 96 hours). Cells were resuspended using 10× EDTA and antigen expression was determined as described (Leon, Mesa-Tejada, Gutierrez, Estabrook, Greiner, Schlom & Fisher: Anticancer Res. 9:1639-1648, 1989; Leon, Gutierrez, Jiang, Estabrook, Waxman & Fisher: Cancer Immunol. Immmunother. 35:315-324, 1992).

[2] = system: T47D cells; assay: 3H-thymidine incorporation (DNA synthesis) in T47D cells; assay type: cell-based, human; conditions: 0.1 μg/ml, 72 hr, FIG. 1
Protocol: FIG. 1: Effect of H-7, TPA, MEZ and ADMB on T47D cell growth and DNA synthesis. Cell growth assays are presented in (A). T47D cells were seeded at 1×10^4 cells/35 mm tissue culture plate, the medium was changed with the indicated compounds 24 hr later and cell numbers were determined after an additional 72 hr growth at 37° C. by Coulter Counter. Results are the average of triplicate samples/experimental condition which varied by ≦10%. DNA synthesis assays are presented in (B). T47 D cells were seeded at 1.25×10^4 cells in 0.2 ml of media in 96 microtiter plates. Every 24 hr, cultures received 1 μCi of methyl-^3H-thymidine and 8 hr later cells were harvested and TCA precipitable counts were determined. Results are the average from replicate samples exposed to the indicated compounds for 72 hr. Replicate samples varied by ≦10% and replicate studies varied by ≦15%. Further details can be found in “Detailed Description Of The Invention”.
T47D cells were seeded at 5×10^3 cells/ml in 35 mm tissue culture plates and 24 hr later the medium was changed with the indicated compounds. Seventy-two hr later the cells were resuspended in trysin/versene (0.125%/0.02%, w/w) and counted using a ZM Coulter Counter (Coulter Electronics). For ^3H-thymidine incorporation studies, T47D cells were seeded at 1.25×10^4 cells in 0.2 ml of media in 96 well microtiter plates. Every 24 hr, plates received 1 μCi of methyl-^3H-thymidine (specific activity […]) (ICN Radiochemicals, Irvine, Calif.), cells were harvested 8 hr after the addition of labeled thymidine and TCA precipitable counts were determined using a Packard scintillation counter. Replicate samples varied by ≦10% and replicate studies varied by ≦15%.

[3] = system: CA19.9; assay: FACS analysis of CA19.9 (MoAb B67.4) in WiDr human colon carcinoma cells; assay type: cell-based
Protocol: as §1

[4] = system: ICAM-1; assay: FACS analysis of ICAM-1 surface expression in T47D cells; assay type: cell-based, human; conditions: 72 hr; for ICAM-1 level of upregulation versus untreated control cells (equivalent to 1.0): presence or absence of 0.1 μg/ml H-7; for ICAM-1 relative increase in expression versus untreated controls (equivalent to 1.0): presence or absence of 1.0 μg/ml H-7
Source text: (§2) IgG1 murine monoclonal antibody Cu18 and Cu46 recognize two different epitopes of a highly restricted breast carcinoma associated glycoprotein of Mr 225,000 to 250,000 (BCA 225). This TAA is expressed intracytoplasmically and on the membrane of 94% of breast tumors tested and in the T47D human breast carcinoma cell line. BCA 225 is shed into the culture medium by T47D cells and into the sera of breast cancer patients. IgG2a monoclonal antibody L243 (anti HLA Class II-DR) recognizes a monomorphic HLA Class II-DR-α epitope (ATCC M355). Monoclonal antibody CL203.4 [40], which recognizes ICAM-I, was kindly provided by Dr. S. Ferrone, New York Medical College, NY. The c-erbB-2 monoclonal antibody which recognizes the extracellular domain of c-erbB-2 was obtained from Triton Biosciences, Inc., Alamedia, Calif. Monoclonal antibodies Cu18 and Cu46 were used at 0.05 μg/ml and monoclonal antibodies interacting with HLA Class II-DR, ICAM-1 and c-erbB-2 were used at 10 μg/ml. For each experiment, isotype matched control backgrounds (IgG for Cu18, Cu46 and ICAM-1, IgG2a for HLA Class Ii and IgG2b for c-erbB-2) were subtracted from the experimental results. Background from antimouse IgG FITC antibody was also subtracted from experimental results. Applicants never observed backgrounds higher than 2% of total cells for isotypic mouse IgG or higher than 5% for antimouse IgG FITC.
(§3) T47D cells treated with the various compounds were analyzed by flow cytometry using appropriate monoclonal antibody concentrations as described previously. Briefly, 1×10^5 cells were incubated with the test antibody for 30 min at 4° C., washed 3× with PBS and incubated with a goat a mouse F (ab)2 FITC conjugated test antibody at a 1:40 dilution for 30 min at 4° C. Cells were then washed 3× with PBS and analyzed on a FACStar (Beckon Dickinson, Mountain View, Calif.) or a Coulter Epics IV FACS (Coulter, Hialeah, Fla.). Results are expressed as mean fluorescence intensity (MFI) units which were determined as described previously. MFI=(mean channel fluorescence in fluorescence positive antibody-binding cells×% of fluorescence positive antibody-binding cells)−(mean channel fluorescence in unstained cells×% of fluorescence positive cells in the unstained population). All studies were performed a minimum of three or four times with duplicate samples in each experiment. Replicate samples within individual experiments varied by ≦10% and variation between experiments were generally ≦20%.

[5] = system: c-erbB-2; assay: FACS analysis of c-erbB-2 surface expression in T47D cells; assay type: cell-based, human; conditions: 72 hr; for c-erbB-2 level of upregulation versus untreated control cells (equivalent to 1.0) / Antigenic Expression (MFI) c-erbB-2: 0.1 μg/ml TPA or MEZ; for c-erbB-2 level of upregulation versus untreated control cells (equivalent to 1.0): presence or absence of 0.1 μg/ml H-7; for Antigenic Expression (MFI) c-erbB-2: presence or absence of 0.1 μg/ml H-7, FACStar
Source text: as §2, §3

[6] = 72 Hour Treatment, ADMB 0.01 μg/ml
[7] = 72 Hour Treatment, ADMB 0.1 μg/ml
[8] = 72 Hour Treatment, ADMB 1.0 μg/ml
[9] = 96 Hour Treatment, ADMB 0.01 μg/ml
[10] = 96 Hour Treatment, ADMB 0.1 μg/ml
[11] = 96 Hour Treatment, ADMB 1.0 μg/ml
[12] = 0.1 μg/ml TPA or MEZ, presence or absence of 0.1 μg/ml H-7, FACStar
[13] = 500 units/ml IFN-β or 50 units/ml IFN-γ
[14] = 500 units/ml IFN-β or 50 units/ml IFN-γ, presence or absence of 1.0 μg/ml H-7, Coulter Epics IV FACS
[15] = 72 Hour Treatment, MEZ 100 ng/ml, IFN-γ 100 U/ml
[16] = 96 Hour Treatment, MEZ 100 ng/ml, IFN-γ 100 U/ml

Molecule	effect on DNA synthesis (3H-thymidine incorporation) [2]	ICAM-1 level of upregulation versus untreated control cells (equivalent to 1.0) ([4]; 0.1 μg/ml TPA or MEZ)	Antigenic Expression (MFI) ICAM-1 [4, 12]	ICAM-1 relative increase in expression versus untreated controls (equivalent to 1.0) [4, 13]	Antigenic Expression (MFI) ICAM-1 [4, 14]	c-erbB-2 level of upregulation versus untreated control cells (equivalent to 1.0) [5]	Antigenic Expression (MFI) c-erbB-2 [5]	Monoclonal Antibody Binding (MFI) MoAb L243 (HLA-DR) [1, 15]	Monoclonal Antibody Binding (MFI) MoAb L243 (HLA-DR) [1, 16]	Monoclonal Antibody Binding (MFI) MoAb B67.4 (CA19.9) [3, 15]	Monoclonal Antibody Binding (MFI) MoAb B67.4 (CA19.9) [3, 16]	further results
CCCCCCCCCCN(C)c1cc(CO)cc(NC(C)=O)c1 [ADMB, 3-(N-acetylamino)-5-(N-decyl-N-methylamino)-benzyl alcohol]	only marginally altered	–	–	–	–	–	–	–	–	–	–	Monoclonal Antibody Binding (MFI) MoAb L243 (HLA-DR) [1, 6]: 390 MFI; Monoclonal Antibody Binding (MFI) MoAb L243 (HLA-DR) [1, 7]: 317 MFI; Monoclonal Antibody Binding (MFI) MoAb L243 (HLA-DR) [1, 8]: 486* MFI; Monoclonal Antibody Binding (MFI) MoAb L243 (HLA-DR) [1, 9]: 434 MFI; Monoclonal Antibody Binding (MFI) MoAb L243 (HLA-DR) [1, 10]: 615* MFI; Monoclonal Antibody Binding (MFI) MoAb L243 (HLA-DR) [1, 11]: 806* MFI; Monoclonal Antibody Binding (MFI) MoAb B67.4 (CA19.9) [3, 6]: 1136 MFI; Monoclonal Antibody Binding (MFI) MoAb B67.4 (CA19.9) [3, 7]: 1172 MFI; Monoclonal Antibody Binding (MFI) MoAb B67.4 (CA19.9) [3, 8]: 1400* MFI; Monoclonal Antibody Binding (MFI) MoAb B67.4 (CA19.9) [3, 9]: 1512 MFI; Monoclonal Antibody Binding (MFI) MoAb B67.4 (CA19.9) [3, 10]: 2028* MFI; Monoclonal Antibody Binding (MFI) MoAb B67.4 (CA19.9) [3, 11]: 2417* MFI
CC1CNCCN1S(=O)(=O)c1cccc2cnccc12.Cl.Cl (stereo not shown) [H-7, 1-(5-isoquinolinesulfonyl)-2-methylpiperazine dihydrochloride]	–	(1.0)	21,538 MFI	1.0	54,080 MFI	(1.0)	7,045 MFI	–	–	–	–	–
C=C(C)[C@@]12O[C@@]3(c4ccccc4)O[C@@H]1[C@@H]1[C@@H]4O[C@]4(CO)[C@@H](O)[C@]4(O)C(=O)C(C)=C[C@H]4[C@@]1(O3)[C@H](C)[C@H]2OC(=O)/C=C/C=C/c1ccccc1 [MEZ, mezerein]	only marginally altered	(4.1)	85,745 MFI	–	–	(2.6)	18,385 MFI	1120* MFI	2129* MFI	1914* MFI	4784* MFI	efficacy of upregulation of c-erbB-2 (fold-change in MFI, FIG. 2) ([5]; 0.1 μg/ml of ADMB, TPA or MEZ): most effective PKC activator tested
CCCCCCCCCCCCCC(=O)O[C@@H]1[C@@H](C)[C@@]2(O)[C@@H](C=C(CO)C[C@]3(O)C(=O)C(C)=C[C@@H]23)[C@H]2C(C)(C)[C@]12OC(C)=O [TPA, 12-0-tetradecanoyl-phorbol-13-acetate]	suppressed to the greatest degree	(3.0)	63,175 MFI	–	–	(2.3)	16,100 MFI	–	–	–	–	–
B1	–	–	–	3.5	191,490 MFI	–	–	1724* MFI	2376* MFI	2271* MFI	3191* MFI	activity in increasing Class II HLA-DR antigens relative to ADMB [1]: approximately 3 ×
B2	–	–	–	1.8	97,013 MFI	–	–	–	–	–	–	–

Reference: patent US20020040062A1, “Protein kinase C activators and their use in decreasing expression of cell antigens” (The Trustees of Columbia University, priority 1993, published 2002)
